The results in this text go back to patent US20190192517A1, “TREATMENT OF SQUAMOUS CELL CARCINOMAS WITH INHIBITORS OF ERK” (Kura Oncology, Inc., priority 2016, published 2019).

pIC50: −log10 of the molar value. Bounds are passed on as bounds.

T1 sequence (P28482 whole entry): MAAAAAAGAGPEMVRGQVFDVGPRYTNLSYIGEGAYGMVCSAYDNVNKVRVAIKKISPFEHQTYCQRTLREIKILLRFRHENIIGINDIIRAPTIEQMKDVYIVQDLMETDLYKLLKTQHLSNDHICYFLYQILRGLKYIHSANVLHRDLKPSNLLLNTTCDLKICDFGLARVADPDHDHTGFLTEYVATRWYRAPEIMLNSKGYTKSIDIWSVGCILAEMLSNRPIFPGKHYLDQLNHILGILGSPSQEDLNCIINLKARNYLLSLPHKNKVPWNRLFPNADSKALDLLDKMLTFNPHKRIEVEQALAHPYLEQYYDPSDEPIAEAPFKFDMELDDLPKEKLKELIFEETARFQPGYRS

This experiment has as its target T1, ERK2 enzyme (Homo sapiens, UniProt P28482).
T1 construct: purchased Life Technologies
The experiment can be described thus: Inhibition assay of ERK (Z'-LYTE kinase assay, Ser/Thr 3 peptide, 100 μM ATP). The following applies: in vitro. Format: biochemical. How it is done: Example 9: Inhibition Assays of ERK. The inhibition of ERK activity by the compounds disclosed herein was determined using the Z′-LYTE kinase assay kit (Life Technologies) with a Ser/Thr 3 peptide substrate (Life Technologies) according to manufacturer's instructions. […] The IC50 values for the compounds were determined with 3-fold serial dilutions in duplicate. The compounds were first diluted in 1:3 dilutions in 100% DMSO at 100× the desired concentration, and then further diluted (1:25) in 20 mM HEPES buffer (Invitrogen) to make 4× solutions prior to adding to the enzyme solution. The final DMSO concentration in the assay was 1%. Final reaction volume was […] in 384-well plates. Kinase reactions were conducted for 1 hour followed by the assay development reaction (1 hour) in a 384 well plate format (20 μL/well).
The compound `Cc1cc(-c2n[nH]c3cc4c(cc23)CN([C@@H]2CN(C)C[C@H]2c2ccccc2)C(=O)N4)ccn1` (racemic) [Compound 241] had a pIC50 of more than 6.30.

As for `Cc1cc(-c2n[nH]c3cc4c(cc23)CN([C@@H]2CN(C)C[C@H]2c2ccccc2)C(=O)N4)cc(C)n1` (racemic) [Compound 248], the pIC50 is more than 6.30.

Consider `CCN1C[C@@H](N2Cc3cc4c(-c5ccnc(C)c5)n[nH]c4cc3NC2=O)[C@H](c2ccccc2)C1` (racemic) [Compound 278], for which the pIC50 was more than 6.30.

In turn, `Cc1cc(-c2n[nH]c3cc4c(cc23)CN([C@@H]2CN(C(C)C)C[C@H]2c2ccccc2)C(=O)N4)ccn1` (racemic) [Compound 279] gave a pIC50 of more than 6.30.

The compound `Cc1cc(-c2n[nH]c3cc4c(cc23)CN([C@@H]2CN(C)C[C@H]2c2ccccc2F)C(=O)N4)cc(C)n1` (racemic) [Compound 306] had a pIC50 of more than 6.30.

Consider `Cc1cc(-c2n[nH]c3cc4c(cc23)CN([C@@H]2CN(CC(F)F)C[C@H]2c2ccccc2)C(=O)N4)ccn1` (racemic) [Compound 362], for which the pIC50 is more than 6.30.

In turn, `O=C1Nc2cc3[nH]nc(-c4ccncc4)c3cc2CN1Cc1ccccc1` [Compound 1] showed a pIC50 of more than 6.30.

For the compound `O=C1Nc2cc3[nH]nc(-c4ccncc4)c3cc2CN1Cc1cccc(Cl)c1` [Compound 3], the pIC50 was more than 6.30.

The compound `Cc1cc(-c2n[nH]c3cc4c(cc23)CN(Cc2cccc(Cl)c2)C(=O)N4)ccn1` [Compound 4] showed a pIC50 of more than 6.30.

Turning to `Cc1cc(-c2n[nH]c3cc4[nH]c(=O)c(C(C)c5ccccc5)cc4cc23)ccn1` (stereo not drawn) [Compound 22], the pIC50 was more than 6.30.

Compound `Cc1cc(-c2n[nH]c3cc4c(cc23)CN([C@@H]2CCCN(Cc3ccccc3)C2)C(=O)N4)ccn1` [Compound 63] showed a pIC50 of more than 6.30.

Compound `CCC(c1ccccc1)c1cc2cc3c(-c4ccnc(C)c4)n[nH]c3cc2[nH]c1=O` (stereo not drawn) [Compound 64] showed a pIC50 of more than 6.30.

For the compound `COc1ncc(-c2n[nH]c3cc4c(cc23)CN(Cc2cccc(Cl)c2)C(=O)N4)cn1` [Compound 68], the pIC50 was more than 6.30.

The compound `Cc1cc(-c2n[nH]c3cc4[nH]c(=O)c([C@H](C)c5ccccc5)cc4cc23)ccn1` [Compound 84] showed a pIC50 of more than 6.30.

`COc1ncc(-c2n[nH]c3cc4c(cc23)CN([C@@H]2CCCN(Cc3ccccc3F)C2)C(=O)N4)cn1` [Compound 101] showed a pIC50 of more than 6.30.

Regarding `COc1ncc(-c2n[nH]c3cc4c(cc23)CN([C@@H]2CCCN(Cc3c(F)cccc3F)C2)C(=O)N4)cn1` [Compound 102], the pIC50 was more than 6.30.

For the compound `COc1ncc(-c2n[nH]c3cc4c(cc23)CN([C@@H]2CCCN(Cc3c(F)cccc3OC)C2)C(=O)N4)cn1` [Compound 103], the pIC50 is more than 6.30.

In the case of `COc1ncc(-c2n[nH]c3cc4c(cc23)CN([C@@H]2CCCN(Cc3ccccc3)C2)C(=O)N4)cn1` [Compound 104], the pIC50 is more than 6.30.

For the compound `Cc1cc(-c2n[nH]c3cc4c(cc23)CN([C@@H]2CCCN(Cc3ccc(F)c(Cl)c3)C2)C(=O)N4)ccn1` [Compound 134], the pIC50 is more than 6.30.

`Cc1cc(-c2n[nH]c3cc4c(cc23)CN([C@@H]2CCCN(Cc3c(F)cccc3F)C2)C(=O)N4)ccn1` [Compound 143] had a pIC50 of more than 6.30.

The compound `COc1cccc(F)c1CN1CCC[C@@H](N2Cc3cc4c(-c5ccnc(C)c5)n[nH]c4cc3NC2=O)C1` [Compound 144] gave a pIC50 of more than 6.30.

`Cc1cc(-c2n[nH]c3cc4c(cc23)CN([C@@H]2CCN(Cc3ccccc3)C2)C(=O)N4)ccn1` [Compound 146] had a pIC50 of more than 6.30.

In turn, `[2H]C([2H])(c1ccccc1)N1CCC[C@@H](N2Cc3cc4c(-c5ccnc(C)c5)n[nH]c4cc3NC2=O)C1` [Compound 148] gave a pIC50 of more than 6.30.

As for `Cc1cc(-c2n[nH]c3cc4c(cc23)CN(CCNCc2ccccc2)C(=O)N4)ccn1` [Compound 149], the pIC50 was more than 6.30.

For `Cc1cc(-c2n[nH]c3cc4c(cc23)CN([C@@H]2CCCN(Cc3ccc(F)cc3)C2)C(=O)N4)ccn1` [Compound 151], the pIC50 is more than 6.30.

`Cc1cc(-c2n[nH]c3cc4c(cc23)CN([C@@H]2CCN(CCc3ccccc3)C2)C(=O)N4)ccn1` [Compound 153] showed a pIC50 of more than 6.30.

Compound `Cc1cc(-c2n[nH]c3cc4c(cc23)CN([C@@H]2CCCN(C(C)c3ccccc3)C2)C(=O)N4)ccn1` (stereo partly drawn) [Compound 154] had a pIC50 of more than 6.30.

The compound `Cc1cc(-c2n[nH]c3cc4c(cc23)CN([C@@H]2CCCN(Cc3cccc(Cl)c3)C2)C(=O)N4)ccn1` [Compound 156] showed a pIC50 of more than 6.30.

Compound `Cc1cc(-c2n[nH]c3cc4c(cc23)CN([C@@H]2CCCN(Cc3ccccc3Cl)C2)C(=O)N4)ccn1` [Compound 158] had a pIC50 of more than 6.30.

As to `COc1cccc(F)c1CN1CC[C@@H](N2Cc3cc4c(-c5ccnc(C)c5)n[nH]c4cc3NC2=O)C1` [Compound 162], the pIC50 is more than 6.30.

In turn, `[2H]c1c([2H])c([2H])c(C([2H])([2H])N2CCC[C@@H](N3Cc4cc5c(-c6ccnc(C)c6)n[nH]c5cc4NC3=O)C2)c([2H])c1[2H]` [Compound 165] gave a pIC50 of more than 6.30.

As to `Cc1cc(-c2n[nH]c3cc4c(cc23)CN([C@@H]2CCCN(Cc3cccc(F)c3)C2)C(=O)N4)ccn1` [Compound 184], the pIC50 is more than 6.30.

`Cc1cc(-c2n[nH]c3cc4c(cc23)CN([C@@H]2CCCN(Cc3cccc(F)c3F)C2)C(=O)N4)ccn1` [Compound 185]: the pIC50 was more than 6.30.

`Cc1cc(-c2n[nH]c3cc4c(cc23)CN([C@@H]2CCCN(Cc3cc(F)ccc3F)C2)C(=O)N4)ccn1` [Compound 187] gave a pIC50 of more than 6.30.

On to `Cc1cc(-c2n[nH]c3cc4c(cc23)CN([C@@H]2CCCN(Cc3ccc(F)c(F)c3)C2)C(=O)N4)ccn1` [Compound 190], for which the pIC50 is more than 6.30.

`Cc1cc(-c2n[nH]c3cc4c(cc23)CN([C@@H]2CCCN(Cc3ccc(F)cc3F)C2)C(=O)N4)ccn1` [Compound 196] showed a pIC50 of more than 6.30.

As for `Cc1cc(-c2n[nH]c3cc4[nH]c(=O)c(C(C)c5ccc(F)cc5)cc4cc23)ccn1` (stereo not drawn) [Compound 197], the pIC50 is more than 6.30.

For `Cc1cc(-c2n[nH]c3cc4c(cc23)CN(CC2CCCC2)C(=O)N4)ccn1` [Compound 212], the pIC50 is more than 6.30.

With `Cc1cc(-c2n[nH]c3cc4c(cc23)CN(CC2CCCCC2)C(=O)N4)ccn1` [Compound 213], the pIC50 was more than 6.30.

The compound `Cc1cc(-c2n[nH]c3cc4c(cc23)CN([C@@H]2CCN(CC(F)(F)F)C2)C(=O)N4)ccn1` [Compound 214] gave a pIC50 of more than 6.30.

`Cc1cc(-c2n[nH]c3cc4c(cc23)CN(Cc2cc(F)cc(F)c2)C(=O)N4)cc(C)n1` [Compound 225] had a pIC50 of more than 6.30.

As to `Cc1cc(-c2n[nH]c3cc4c(cc23)CN([C@@H]2CCN(CC(F)(F)F)C2)C(=O)N4)cc(C)n1` [Compound 237], the pIC50 is more than 6.30.

For `Cc1cc(-c2n[nH]c3cc4c(cc23)CN(C2CCCC2)C(=O)N4)cc(C)n1` [Compound 239], the pIC50 was more than 6.30.

Compound `Cc1cc(-c2n[nH]c3cc4c(cc23)CN(Cc2cccc(C(F)(F)F)c2)C(=O)N4)ccn1` [Compound 240] gave a pIC50 of more than 6.30.

Compound `Cc1cc(-c2n[nH]c3cc4c(cc23)CN(C2CCC2)C(=O)N4)ccn1` [Compound 243] gave a pIC50 of more than 6.30.

Compound `Cc1cc(-c2n[nH]c3cc4c(cc23)CN([C@@H]2CCCN(CC(F)(F)F)C2)C(=O)N4)cc(C)n1` [Compound 244] had a pIC50 of more than 6.30.

In turn, `Cc1cc(-c2n[nH]c3cc4c(cc23)CN([C@@H]2CCCN(Cc3ccc(C)s3)C2)C(=O)N4)ccn1` [Compound 245] gave a pIC50 of more than 6.30.

Compound `Cc1cc(-c2n[nH]c3cc4c(cc23)CN([C@@H]2CCCN(Cc3csc(C)c3)C2)C(=O)N4)ccn1` [Compound 251] had a pIC50 of more than 6.30.

`Cc1cc(-c2n[nH]c3cc4c(cc23)CN([C@@H]2CCCN(Cc3ccsc3)C2)C(=O)N4)ccn1` [Compound 252] had a pIC50 of more than 6.30.

Consider `Cc1cc(-c2n[nH]c3cc4c(cc23)CN([C@@H]2CCCN(Cc3cccs3)C2)C(=O)N4)ccn1` [Compound 254], for which the pIC50 is more than 6.30.

As to `Cc1cc(-c2n[nH]c3cc4c(cc23)CN([C@H]2CN(Cc3ccccc3)CC(F)(F)C2)C(=O)N4)ccn1` [Compound 264], the pIC50 was more than 6.30.

`Cc1cc(-c2n[nH]c3cc4c(cc23)CN([C@@H]2CCN(C(C)C(F)(F)F)C2)C(=O)N4)ccn1` (stereo partly drawn) [Compound 267] gave a pIC50 of more than 6.30.

Compound `C=C(c1ccccc1)c1cc2cc3c(-c4ccnc(C)c4)n[nH]c3cc2[nH]c1=O` [Compound 269] showed a pIC50 of more than 6.30.

The compound `COc1cc(-c2n[nH]c3cc4c(cc23)CN([C@@H]2CCCN(Cc3ccccc3)C2)C(=O)N4)ccn1` [Compound 270] had a pIC50 of more than 6.30.

As for `COc1cc(-c2n[nH]c3cc4c(cc23)CN([C@@H]2CCCN(Cc3ccc(F)cc3F)C2)C(=O)N4)ccn1` [Compound 271], the pIC50 is more than 6.30.

`COc1ccc(-c2n[nH]c3cc4c(cc23)CN([C@@H]2CCCN(Cc3ccccc3)C2)C(=O)N4)cn1` [Compound 272] had a pIC50 of more than 6.30.

`COc1ccc(-c2n[nH]c3cc4c(cc23)CN([C@@H]2CCCN(Cc3ccc(F)cc3F)C2)C(=O)N4)cn1` [Compound 273] gave a pIC50 of more than 6.30.

Compound `Cc1ccc(-c2n[nH]c3cc4c(cc23)CN([C@@H]2CCCN(Cc3ccccc3)C2)C(=O)N4)cn1` [Compound 275] had a pIC50 of more than 6.30.

As to `COc1ncc(-c2n[nH]c3cc4c(cc23)CN([C@@H]2CCCN(Cc3ccc(F)cc3F)C2)C(=O)N4)cn1` [Compound 280], the pIC50 is more than 6.30.

In the case of `Cn1ccc(-c2n[nH]c3cc4c(cc23)CN([C@@H]2CCCN(Cc3ccc(F)cc3F)C2)C(=O)N4)c1` [Compound 281], the pIC50 was more than 6.30.
